Activity calls are given as the source filed them. The rule behind the calls is not given here.
Tests used:
[1] = molecular target: T1, Tyrosine-protein kinase JAK1 (Homo sapiens, UniProt P23458); assay: Inhibition of N-terminal GST-fused human recombinant JAK1 (866 to 1154 residues) expressed in insect cells using FITC-C6-KKHTDDGYMPMSPGVA-NH2 as substrate by microfluidic capillary electrophoresis method
Homo sapiens = species on record: Homo sapiens; assay: Selectivity ratio of IC50 for N-terminal GST-fused recombinant JAK2 (831 to 1132 residues) (unknown origin) to N-terminal GST-fused human recombinant JAK1 (866 to 1154 residues)
[2] = molecular target: T2, Tyrosine-protein kinase JAK3 (Homo sapiens, UniProt P52333); assay: Inhibition of N-terminal GST-fused recombinant JAK3 (781 to 1124 residues) (unknown origin) expressed in insect cells using 5FAM-GEEPLYWSFPAKKK-NH2 as substrate by microfluidic capillary electrophoresis method
T2 sequence (P52333 whole entry): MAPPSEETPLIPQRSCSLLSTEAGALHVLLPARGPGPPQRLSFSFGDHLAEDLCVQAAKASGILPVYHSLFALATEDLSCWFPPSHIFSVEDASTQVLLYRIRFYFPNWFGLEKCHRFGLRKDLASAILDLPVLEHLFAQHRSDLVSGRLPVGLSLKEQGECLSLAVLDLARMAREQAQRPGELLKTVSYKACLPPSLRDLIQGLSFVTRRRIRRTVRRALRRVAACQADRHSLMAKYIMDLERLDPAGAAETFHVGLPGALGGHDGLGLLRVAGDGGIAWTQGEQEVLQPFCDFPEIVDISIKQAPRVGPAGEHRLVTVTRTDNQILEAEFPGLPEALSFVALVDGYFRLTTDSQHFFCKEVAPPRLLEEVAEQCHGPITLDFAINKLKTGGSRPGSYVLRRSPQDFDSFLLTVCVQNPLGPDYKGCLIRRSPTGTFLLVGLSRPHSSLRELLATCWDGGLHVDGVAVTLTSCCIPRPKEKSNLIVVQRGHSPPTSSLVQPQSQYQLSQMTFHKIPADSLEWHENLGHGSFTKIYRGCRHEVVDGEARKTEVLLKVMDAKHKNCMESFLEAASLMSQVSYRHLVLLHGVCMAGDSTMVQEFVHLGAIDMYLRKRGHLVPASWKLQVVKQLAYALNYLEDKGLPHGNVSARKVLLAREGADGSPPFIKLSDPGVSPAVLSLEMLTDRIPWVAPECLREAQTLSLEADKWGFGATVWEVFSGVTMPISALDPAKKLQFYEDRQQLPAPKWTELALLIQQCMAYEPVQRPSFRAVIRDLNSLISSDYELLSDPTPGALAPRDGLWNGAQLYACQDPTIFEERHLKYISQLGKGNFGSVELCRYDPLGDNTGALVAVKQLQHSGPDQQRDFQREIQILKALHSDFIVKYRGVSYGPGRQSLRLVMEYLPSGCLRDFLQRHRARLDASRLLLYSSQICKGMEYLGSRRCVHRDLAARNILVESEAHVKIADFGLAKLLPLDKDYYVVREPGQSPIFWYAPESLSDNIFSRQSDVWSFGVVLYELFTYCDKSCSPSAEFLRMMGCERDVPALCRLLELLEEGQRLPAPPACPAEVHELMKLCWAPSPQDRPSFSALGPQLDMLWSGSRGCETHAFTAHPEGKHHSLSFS

[3] = molecular target: T3, Tyrosine-protein kinase JAK2 (Homo sapiens, UniProt O60674); assay: Inhibition of N-terminal GST-fused recombinant JAK2 (831 to 1132 residues) (unknown origin) expressed in insect cells using 5FAM-GEEPLYWSFPAKKK-NH2 as substrate by microfluidic capillary electrophoresis method
T3 sequence (O60674 whole entry, the tested form may be a part): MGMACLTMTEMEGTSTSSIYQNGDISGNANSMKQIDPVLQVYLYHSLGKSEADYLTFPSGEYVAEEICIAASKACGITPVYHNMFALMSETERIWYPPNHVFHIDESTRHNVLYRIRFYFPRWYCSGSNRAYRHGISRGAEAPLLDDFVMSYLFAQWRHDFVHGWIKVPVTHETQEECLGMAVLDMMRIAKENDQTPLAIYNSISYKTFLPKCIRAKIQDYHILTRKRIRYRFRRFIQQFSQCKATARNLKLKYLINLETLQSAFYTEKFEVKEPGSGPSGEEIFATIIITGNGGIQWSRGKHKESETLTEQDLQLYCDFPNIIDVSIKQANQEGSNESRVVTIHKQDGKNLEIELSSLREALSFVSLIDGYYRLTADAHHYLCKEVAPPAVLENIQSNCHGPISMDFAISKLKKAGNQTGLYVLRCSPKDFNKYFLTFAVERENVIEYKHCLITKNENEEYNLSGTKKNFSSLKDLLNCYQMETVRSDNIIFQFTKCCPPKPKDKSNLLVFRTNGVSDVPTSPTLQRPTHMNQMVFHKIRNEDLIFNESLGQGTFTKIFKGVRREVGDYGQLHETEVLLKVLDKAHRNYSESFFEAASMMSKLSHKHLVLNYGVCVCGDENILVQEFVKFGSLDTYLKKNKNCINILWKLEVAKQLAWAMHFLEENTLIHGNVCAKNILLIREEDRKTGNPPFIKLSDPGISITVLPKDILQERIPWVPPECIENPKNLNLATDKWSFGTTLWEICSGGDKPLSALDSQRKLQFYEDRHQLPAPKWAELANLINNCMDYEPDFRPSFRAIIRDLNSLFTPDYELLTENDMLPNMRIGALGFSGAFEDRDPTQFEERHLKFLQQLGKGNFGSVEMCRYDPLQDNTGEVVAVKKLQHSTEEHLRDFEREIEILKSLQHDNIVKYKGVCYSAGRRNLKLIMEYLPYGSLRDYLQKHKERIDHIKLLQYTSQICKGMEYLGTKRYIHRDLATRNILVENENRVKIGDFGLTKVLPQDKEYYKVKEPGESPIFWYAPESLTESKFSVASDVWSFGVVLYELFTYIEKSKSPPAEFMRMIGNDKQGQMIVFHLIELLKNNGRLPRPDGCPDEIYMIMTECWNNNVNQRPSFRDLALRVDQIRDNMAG

[4] = molecular target: T1, Tyrosine-protein kinase JAK1; assay: Inhibition of JAK1 in human NCI-H1975 cells assessed as reduction in STAT3 phosphorylation after 2 hrs; assay type: cell-based
[5] = molecular target: Non-receptor tyrosine-protein kinase TYK2 (Homo sapiens, UniProt P29597); assay: Inhibition of N-terminal 6His-tagged human recombinant Tyk2
Sequence of Non-receptor tyrosine-protein kinase TYK2 (P29597 whole entry, the tested form may be a part): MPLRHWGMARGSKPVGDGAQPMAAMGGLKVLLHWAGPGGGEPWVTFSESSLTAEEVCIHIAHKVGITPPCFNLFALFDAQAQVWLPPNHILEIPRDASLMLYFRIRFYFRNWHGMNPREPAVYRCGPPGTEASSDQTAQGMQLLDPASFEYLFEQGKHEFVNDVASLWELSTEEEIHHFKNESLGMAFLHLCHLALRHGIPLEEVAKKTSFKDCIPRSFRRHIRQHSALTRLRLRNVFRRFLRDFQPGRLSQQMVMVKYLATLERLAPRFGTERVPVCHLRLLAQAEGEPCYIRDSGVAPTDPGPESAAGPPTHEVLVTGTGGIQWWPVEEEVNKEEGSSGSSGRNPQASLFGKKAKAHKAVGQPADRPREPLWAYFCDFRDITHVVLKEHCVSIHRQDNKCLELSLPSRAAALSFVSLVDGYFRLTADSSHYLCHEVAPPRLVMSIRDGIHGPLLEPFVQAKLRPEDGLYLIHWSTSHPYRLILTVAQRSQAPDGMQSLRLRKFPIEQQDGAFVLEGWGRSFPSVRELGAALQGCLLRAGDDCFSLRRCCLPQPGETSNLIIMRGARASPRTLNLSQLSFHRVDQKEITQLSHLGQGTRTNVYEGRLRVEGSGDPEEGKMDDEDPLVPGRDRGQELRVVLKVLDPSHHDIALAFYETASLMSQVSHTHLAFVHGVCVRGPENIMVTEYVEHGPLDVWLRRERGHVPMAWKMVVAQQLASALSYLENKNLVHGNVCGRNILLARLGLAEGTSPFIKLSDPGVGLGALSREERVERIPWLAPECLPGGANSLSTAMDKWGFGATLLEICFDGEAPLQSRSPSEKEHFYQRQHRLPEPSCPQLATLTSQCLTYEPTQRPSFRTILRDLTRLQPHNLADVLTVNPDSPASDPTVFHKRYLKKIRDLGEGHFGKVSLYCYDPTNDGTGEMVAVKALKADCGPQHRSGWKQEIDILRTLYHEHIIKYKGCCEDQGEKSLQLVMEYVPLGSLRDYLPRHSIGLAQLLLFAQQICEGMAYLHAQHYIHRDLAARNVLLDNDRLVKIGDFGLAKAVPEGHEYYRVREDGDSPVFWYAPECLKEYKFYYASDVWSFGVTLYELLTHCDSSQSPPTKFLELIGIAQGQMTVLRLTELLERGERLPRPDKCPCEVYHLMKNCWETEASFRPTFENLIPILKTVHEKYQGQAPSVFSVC

[6] = molecular target: Cyclin-dependent kinase 2/cyclin E1 (Homo sapiens, UniProt P24941); assay: Inhibition of N-terminal 6His-tagged human recombinant full length CDK2 (1 to 304 residues)/Cyclin E1 (1 to 410 residues) expressed in insect cells using FL-Ahx-QSPKKG-CONH2 as substrate by microfluidic capillary electrophoresis method
Aurora kinase B = Aurora kinase B (Homo sapiens, UniProt Q96GD4); assay: Inhibition of GST-INCENP activated N-terminal 6His-tagged human recombinant full length Aurora B (1 to 344 residues) expressed in baculovirus expression system using 5FAM-LRRASLG as substrate by microfluidic capillary electrophoresis method
Sequence of Aurora kinase B (Q96GD4 whole entry, the tested form may be a part): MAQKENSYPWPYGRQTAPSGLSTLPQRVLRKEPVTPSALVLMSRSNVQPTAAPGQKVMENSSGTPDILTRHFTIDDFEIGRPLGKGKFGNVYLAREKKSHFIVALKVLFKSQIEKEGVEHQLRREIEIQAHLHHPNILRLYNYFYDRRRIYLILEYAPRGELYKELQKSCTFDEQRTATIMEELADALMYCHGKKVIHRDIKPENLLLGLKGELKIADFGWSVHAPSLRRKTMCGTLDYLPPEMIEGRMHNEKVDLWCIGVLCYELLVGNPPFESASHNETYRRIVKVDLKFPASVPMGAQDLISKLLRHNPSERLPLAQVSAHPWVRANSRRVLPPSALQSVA

[7] = Cell cycle arrest in human SW620 cells assessed as multi-nuclear cells at 1 uM after 24 hrs by propidium iodide staining-based flow cytometric analysis (reference value: 5%); assay type: functional; details: SW-620
[8] = Cell cycle arrest in human SW620 cells assessed as accumulation at S phase at 10 uM after 24 hrs by propidium iodide staining-based flow cytometric analysis (reference value: 13.9%); assay type: functional; details: SW-620
[9] = Cell cycle arrest in human SW620 cells assessed as accumulation at G1 phase at 10 uM after 24 hrs by propidium iodide staining-based flow cytometric analysis (reference value: 61.4%); assay type: functional; details: SW-620
[10] = Cell cycle arrest in human SW620 cells assessed as accumulation at Sub G1 phase at 1 uM after 24 hrs by propidium iodide staining-based flow cytometric analysis (reference value: 1.6%); assay type: functional; details: SW-620
[11] = Cell cycle arrest in human SW620 cells assessed as accumulation at G1 phase at 1 uM after 24 hrs by propidium iodide staining-based flow cytometric analysis (reference value: 61.4%); assay type: functional; details: SW-620
[12] = Cell cycle arrest in human SW620 cells assessed as multi-nuclear cells at 10 uM after 24 hrs by propidium iodide staining-based flow cytometric analysis (reference value: 5%); assay type: functional; details: SW-620
[13] = Cell cycle arrest in human SW620 cells assessed as accumulation at S phase at 1 uM after 24 hrs by propidium iodide staining-based flow cytometric analysis (reference value: 13.9%); assay type: functional; details: SW-620
[14] = Cell cycle arrest in human SW620 cells assessed as accumulation at G2/M phase at 1 uM after 24 hrs by propidium iodide staining-based flow cytometric analysis (reference value: 17.4%); assay type: functional; details: SW-620
[15] = Cell cycle arrest in human SW620 cells assessed as accumulation at G2/M phase at 10 uM after 24 hrs by propidium iodide staining-based flow cytometric analysis (reference value: 17.4%); assay type: functional; details: SW-620
[16] = Cell cycle arrest in human SW620 cells assessed as accumulation at Sub G1 phase at 10 uM after 24 hrs by propidium iodide staining-based flow cytometric analysis (reference value: 1.6%); assay type: functional; details: SW-620
[17] = molecular target: T3, Tyrosine-protein kinase JAK2; assay: Inhibition of JAK2 in human HEL 92.1.7 cells assessed as reduction in STAT5 phosphorylation after 2 hrs by Western blot analysis; assay type: cell-based
[18] = molecular target: T1, Tyrosine-protein kinase JAK1; assay: Inhibition of JAK1 in human NCI-H1975 cells assessed as reduction in STAT3 phosphorylation at 0.003 to 3 uM after 2 hrs by Western blot analysis; assay type: cell-based

T1 sequence (P23458 whole entry, the tested form may be a part): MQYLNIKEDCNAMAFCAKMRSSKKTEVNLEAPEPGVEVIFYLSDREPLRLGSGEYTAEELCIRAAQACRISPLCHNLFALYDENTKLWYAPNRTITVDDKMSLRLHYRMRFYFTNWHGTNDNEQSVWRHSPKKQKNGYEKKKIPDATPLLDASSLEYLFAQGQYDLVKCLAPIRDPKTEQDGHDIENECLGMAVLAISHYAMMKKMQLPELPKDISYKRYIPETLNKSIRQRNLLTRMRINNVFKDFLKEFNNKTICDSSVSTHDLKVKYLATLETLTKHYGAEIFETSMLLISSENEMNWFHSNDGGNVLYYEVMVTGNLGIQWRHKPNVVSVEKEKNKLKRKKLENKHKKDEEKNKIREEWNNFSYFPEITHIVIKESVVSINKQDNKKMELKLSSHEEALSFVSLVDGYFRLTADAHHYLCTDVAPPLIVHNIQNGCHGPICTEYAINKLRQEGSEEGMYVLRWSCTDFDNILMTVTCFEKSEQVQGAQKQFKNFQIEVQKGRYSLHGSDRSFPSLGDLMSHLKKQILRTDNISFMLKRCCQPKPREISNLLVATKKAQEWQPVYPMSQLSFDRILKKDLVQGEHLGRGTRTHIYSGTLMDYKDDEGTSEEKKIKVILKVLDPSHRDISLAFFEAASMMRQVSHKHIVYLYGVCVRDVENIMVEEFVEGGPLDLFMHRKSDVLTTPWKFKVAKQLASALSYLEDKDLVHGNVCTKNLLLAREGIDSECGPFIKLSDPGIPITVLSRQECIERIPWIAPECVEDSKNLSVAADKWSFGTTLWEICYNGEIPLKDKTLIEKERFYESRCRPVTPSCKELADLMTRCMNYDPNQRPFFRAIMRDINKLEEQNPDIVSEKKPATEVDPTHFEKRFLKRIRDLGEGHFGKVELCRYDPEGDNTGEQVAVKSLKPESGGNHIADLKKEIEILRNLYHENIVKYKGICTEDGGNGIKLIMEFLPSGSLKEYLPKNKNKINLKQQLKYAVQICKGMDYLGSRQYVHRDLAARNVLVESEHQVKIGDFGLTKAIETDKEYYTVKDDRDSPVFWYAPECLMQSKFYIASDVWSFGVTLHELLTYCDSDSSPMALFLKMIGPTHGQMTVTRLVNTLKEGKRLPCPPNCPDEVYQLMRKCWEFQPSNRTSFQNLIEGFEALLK

SMILES | IC50 [1] [nM] | Ratio IC50 (Homo sapiens) | IC50 [2] [nM] | IC50 [3] [nM] | further results
COc1ccc(-c2nc3c(NCC4CCN(C)CC4)c(C(N)=O)cnc3[nH]2)cc1 | 977 | 10 | 4500 | 10300 | –
COc1ccccc1-c1nc2c(NCC3CCN(C)CC3)c(Cl)cnc2[nH]1 | 12200 | 2 | > 30000 | > 30000 | –
COc1ccc(-c2nc3c(NCCO)c(Cl)cnc3[nH]2)cc1 | 5230 | 2 | > 30000 | > 30000 | –
CN1CCC(CNc2c(Cl)cnc3[nH]c(-c4cccc(F)c4)nc23)CC1 | 832 | 19 | > 30000 | 16200 | –
CNc1c(Cl)cnc2[nH]c(-c3ccc(OC)cc3)nc12 | > 30000 | – | > 30000 | > 30000 | –
CN1CCC(CNc2c(Cl)cnc3[nH]c(-c4cccc(S(C)(=O)=O)c4)nc23)CC1 | 4910 | > 6 | > 30000 | > 30000 | –
COCCNc1c(Cl)cnc2[nH]c(-c3ccc(OC)cc3)nc12 | 2100 | > 14 | > 30000 | > 30000 | –
COc1ccc(-c2nc3c(N(C)CC4CCNCC4)c(Cl)cnc3[nH]2)cc1 | 872 | > 34 | > 30000 | > 30000 | –
Cc1cc(Nc2cc(N3CCN(C)CC3)nc(Sc3ccc(NC(=O)C4CC4)cc3)n2)n[nH]1 | – | – | – | – | Activity [7]: 26.6%; Activity [8]: 1.6%; Activity [9]: 4.5%; Activity [10]: 12.5%; Activity [11]: 2.6%; Activity [12]: 15.5%; Activity [13]: 0.9%; Activity [14]: 57.3%; Activity [15]: 60.3%; Activity [16]: 18.2%
COc1ccc(-c2nc3c(NCC4CCN(C)CC4)c(C#N)cnc3[nH]2)cc1 | 4510 | > 6 | > 30000 | > 30000 | –
COc1ccc(-c2nc3c(NC4CCN(C(C)=O)CC4)c(Cl)cnc3[nH]2)cc1 | > 30000 | – | > 30000 | > 30000 | –
Cc1cc(Nc2nc(N[C@@H](C)c3ncc(F)cn3)ncc2Cl)[nH]n1 | – | – | – | – | inhibition [17]: Active; inhibition [18]: Active
COc1ccc(-c2nc3c(NCC4CCNCC4)ccnc3[nH]2)cc1 | > 30000 | – | > 30000 | > 30000 | –

More lines, in order of falling IC50 [1], values ahead:

IC50 [1] [nM] | Ratio IC50 (Homo sapiens) | IC50 [2] [nM] | IC50 [3] [nM] | SMILES | further results
801 | > 28 | > 30000 | > 22000 | COCCN1CCC(CNc2c(Cl)cnc3[nH]c(-c4ccc(OC)cc4)nc23)CC1 | –
561 | 27 | 16900 | 14900 | COc1ccc(-c2nc3c(NC4CCN(C)CC4)c(Cl)cnc3[nH]2)cc1 | –
356 | 8 | 27600 | 2780 | CN1CCC(CNc2c(Cl)cnc3[nH]c(-c4ccc(S(C)(=O)=O)cc4)nc23)CC1 | –
317 | 30 | > 30000 | 9620 | COc1ccc(-c2nc3c(NCC4CCN(C)CC4)c(Cl)cnc3[nH]2)cc1 | –
275 | > 109 | > 30000 | > 30000 | COc1ccc(F)c(-c2nc3c(NCC4CCN(C)CC4)c(Cl)cnc3[nH]2)c1 | –
274 | 59 | > 30000 | 16200 | COc1cccc(-c2nc3c(NCC4CCN(C)CC4)c(Cl)cnc3[nH]2)c1 | –
199 | 70 | > 22000 | 13900 | COc1ccc(-c2nc3c(NCC4CCNC4)c(Cl)cnc3[nH]2)cc1 (stereo not given) | –
177 | – | 19200 | – | COc1ccc(-c2nc3c(NCC4CCN(C)CC4)c(Br)cnc3[nH]2)cc1 | –
177 | 57 | 2780 | 10100 | COc1ccc(-c2nc3c(OCC4CCNCC4)c(Cl)cnc3[nH]2)cc1 | –
173 | > 99 | 7470 | > 17000 | COc1cc(F)c(-c2nc3c(NCC4CCNCC4)c(Cl)cnc3[nH]2)cc1F | IC50 [4]: 71 nM
138 | 22 | 5750 | 3040 | COc1ccc(-c2nc3c(NCC4CCCNC4)c(Cl)cnc3[nH]2)cc1 (stereo not given) | –
106 | 110 | 6900 | 11800 | COc1ccc(-c2nc3c(NCC4CCNCC4)c(Cl)cnc3[nH]2)c(F)c1 | IC50 [4]: 34 nM
73 | 137 | > 30000 | 9900 | COc1ccc(-c2nc3c(NCC4CCN(C)CC4)c(Cl)cnc3[nH]2)cc1OC | –
49 | 267 | 6140 | 13100 | COc1ccc(F)c(-c2nc3c(NCC4CCNCC4)c(Cl)cnc3[nH]2)c1 | IC50 [4]: 76 nM; IC50 [5]: 11400 nM; IC50 [6]: 76 nM; IC50 (Aurora kinase B): 157 nM
36 | 75 | 6600 | 2700 | COc1ccc(-c2nc3c(NCC4CCN(C)CC4)c(Cl)cnc3[nH]2)c(C)c1 | –
17 | 85 | 1130 | 1450 | COc1ccc(-c2nc3c(NCC4CCNCC4)c(Cl)cnc3[nH]2)cc1 | IC50 [4]: 29 nM
9 | 314 | 1540 | 2890 | COc1ccc(-c2nc3c(NCC4CCNCC4)c(Cl)cnc3[nH]2)c(C)c1 | IC50 [4]: 37 nM
4.9 | 463 | 1200 | 2270 | COc1ccc(-c2nc3c(NCC4CCNCC4)c(Cl)cnc3[nH]2)cc1OC | IC50 [4]: 87 nM; IC50 [5]: 1280 nM; IC50 [6]: 57 nM; IC50 (Aurora kinase B): 16 nM

Source: ChEMBL document CHEMBL3745697, “Identification of azabenzimidazoles as potent JAK1 selective inhibitors” (Bioorg Med Chem Lett, 2016)
